Measurements reported in article PMC13327620, “A Deep‐Red‐Absorbing Osmium(II) Complex as a Photosensitizer for Photodynamic Therapy Inducing Immunogenic Cell Death” (Angewandte Chemie (International Ed. in English), 2026).
Like-named read-outs stand apart in the source and are kept apart here.

Assays:
[1] = Photostability by UV-vis absorption in PBS with 10% FBS; type: physicochemical; details: 10% FBS in PBS, 50 μM
Source text: Photostability is a crucial parameter for PSs, as it has a significant impact on their phototoxicity. Based on the results of our in vitro phototoxicity studies, and in view of future in vivo experiments, we decided to investigate the stability of Os2 and Ce6 under deep‐red illumination. Therefore, we monitored the UV–vis absorption spectra of Os2 and Ce6 in biological media (10% FBS in PBS, phosphate‐buffered saline) using a 740 nm excitation wavelength for one hour and a 770 nm excitation wavelength for 2 h, with the duration of light exposure kept consistent with in vitro phototoxicity tests. […]
software Fluofit (PicoQuant GmbH, BERLIN, Germany) based on iterative reconvolution using a Levensberg- M arquandt alg oritm, enabling the obtention of multi-exponential profiles (m ainly one or two exponenti als in our cases ).
Compound Os2 and Ce6 were dissolved in biologically relevant media (PBS solution with 10% FBS) at 50 μ M from the stock solution (10 m M in DMSO). The UV -Vi s spectrum of each complex was recorded from 300 nm to 900 nm at 10- or 20- minutes intervals using BioTek Cytation 5 Cell Imaging Multimode Reader (Agilent […]
The hydrodynamic diameter was determined using dynamic light scattering (DLS, Malvern ZetaSizer Nano ZS) at 25 ℃ . PBS with 10% FBS solutions were filtered through a 0.22 µM membrane before use. […]

[2] = system: mouse colon adenocarcinoma (CT26) cells; experiment: Resazurin cell viability assay, (photo)cytotoxicity, normoxia; type: cell-based
Experimental: Given that most ICD studies focus on breast, non‐small cell lung carcinoma, and colon cancer, and since ICD was first discovered in mouse colon cancer cells (CT26), we initially tested our compounds on CT26 cells. Cells were incubated with nine different concentrations (mainly from 0.01 to 100 µM) of the compounds for 4 h in the dark. Then, the diluted solutions containing the compounds were replaced by fresh medium, and the cells were either illuminated or kept in the dark for 1 h more. After 2 days, IC50 values (concentration of the agent inhibiting cell growth by 50%) were determined with the resazurin assay, using chlorin e6 (Ce6) and protoporphyrin IX (PpIX) for comparison (Figure S10). The clinically approved chlorin mixture Radachlorin contains ∼80% Ce6, while 5‐aminolevulinic acid (Ameluz and Levulan) and methyl 5‐aminolevulinate (Metvix and Metvixia) serve as precursors of PpIX. Therefore, Ce6 and PpIX were used for comparison purposes.
(100 U ml−1), streptomycin (100 U ml−1), and 1% L-glutamine. […]
All cells were incubated at 37 °C in a humidified atmosphere with 5 % CO2.
Normoxia. The in vitro viability of cells exposed to the complexes was determined using a resazurin assay. C ells were seeded in 96-well plates at densities of 4,000 cells/well for CT26, MC A205 and U-87 MG cells, and 8,000 cells/well for MRC-5 and NIH/3T3 cells. A fter 24 h of growth at 37 °C wit h 5% CO2, the medium was replaced with fresh medium containing various concentrations of the compounds . Following a 4- h incubation in the dark, the medium was refres hed , and the plates were exposed to irradiation usinga LUM OS -BIO photoreactor (At las Photonics).N on- ir rad iated plates were similarly refr eshed with medium and kept in the dark for the same duration. After a 40- h r ecov ery period, a f reshly pr epar ed resazurin solution (0.2 mg/mL) was added to each well, and the plates were left in the dark for 4 h before analysis on a B i o Te k Cytation 5 Cell Imaging Multimode Reader (Agil ent Technologies). […]

In the case of C=Cc1c(C)c2cc3nc(c(CC(=O)O)c4[nH]c(cc5nc(cc1[nH]2)C(C)=C5CC)c(C)c4C(=O)O)[C@@H](CCC(=O)O)[C@@H]3C [Ce6, chlorin e6], the “Photostability (UV-vis absorption spectrum)” value ([1]; 740 nm excitation, 1 h, 12.60 J/cm2) is reported as “decreased by nearly half after 50 min”, the “Photostability (UV-vis absorption spectrum)” value ([1]; 770 nm excitation, 2 h, 15.30 J/cm2) is reported as “did not change” and the PI ([2]; CT26, 480 nm) is reported as greater than 38. For the same compound, the PI ([2]; CT26, 510 nm) was greater than 70, the PI ([2]; CT26, 540 nm) was greater than 30 and the PI ([2]; CT26, 595 nm) was greater than 20. The “PI (phototoxicity index, IC50 dark/IC50 light)” value ([2]; CT26, 620 nm) was greater than 51, the PI ([2]; CT26, 645 nm) was greater than 25 and the PI ([2]; CT26, 670 nm) was greater than 51. For the same compound, the PI ([2]; CT26, 740 nm) was greater than 19, the PI ([2]; CT26, 770 nm) was greater than 4 and the IC50 ([2]; CT26, 770 nm, FWHM 12.5 nm, 15.30 J/cm^2) was “almost non‐phototoxic”. For the same compound, the IC50 ([2]; Mus musculus, CT26, CT26, dark, normoxia, read-out: IC50 Dark) was greater than 100 µM, the IC50 ([2]; Mus musculus, CT26, light or radiation study, 1 h, CT26, 620 nm, 1.88 mW/cm^2, 60 min, normoxia, read-out: IC50 620 nm (1 h, 6.75 J/cm^2)) was 1.98 ± 0.11 µM and the IC50 ([2]; Mus musculus, CT26, light or radiation study, CT26, 480 nm, FWHM 10 nm, 3.38 J/cm^2, read-out: IC50) was 2.64 ± 0.42 µM. For the same compound, the IC50 ([2]; Mus musculus, CT26, light or radiation study, CT26, 510 nm, FWHM 15 nm, 2.44 J/cm^2, read-out: IC50) was 1.43 ± 0.1 µM, the IC50 ([2]; Mus musculus, CT26, light or radiation study, CT26, 540 nm, FWHM 15 nm, 9.00 J/cm^2, read-out: IC50) was 3.33 ± 0.44 µM and the IC50 ([2]; Mus musculus, CT26, light or radiation study, CT26, 595 nm, FWHM 10 nm, 3.38 J/cm^2, read-out: IC50) was 5.1 ± 1.44 µM. For the same compound, the IC50 ([2]; Mus musculus, CT26, light or radiation study, CT26, 645 nm, FWHM 10 nm, 9.00 J/cm^2, read-out: IC50) was 3.93 ± 0.67 µM, the IC50 ([2]; Mus musculus, CT26, light or radiation study, CT26, 670 nm, FWHM 10 nm, 13.50 J/cm^2, read-out: IC50) was 1.97 ± 0.42 µM and the IC50 ([2]; Mus musculus, CT26, light or radiation study, CT26, 740 nm, FWHM 10 nm, 12.60 J/cm^2, read-out: IC50) was 5.27 ± 0.46 µM. The IC50 ([2]; Mus musculus, CT26, light or radiation study, CT26, 770 nm, FWHM 12.5 nm, 15.30 J/cm^2, read-out: IC50) was 25.4 ± 3.72 µM.
